Results from US20040039054A1, “Use of L-carnitine and derivatives for reducing ceramide levels and potentiating antiretroviral drugs” (SIGMA-TAU INDUSTRIE, priority 1995, published 2004).

Assays:
[1] = system: lymphocyte ceramide; test: Lymphocyte ceramide by DAG (diacylglycerol) kinase assay in AIDS patients; format: in vivo, human
[2] = system: ceramide; test: Ceramide at muscle cell level in muscle biopsy homogenates of AIDS subjects; format: in vivo, human; settings: muscle biopsy before treatment (baseline), individual patients and group mean
Protocol: (§1) Four subjects with AIDS were treated with 600 mg of AZT daily by mouth. Of these, two were also treated with L-carnitine 3 g daily. The total duration of the treatment was 6 months. Muscle biopsies were performed before and after treatment. The ceramide present at muscle cell level was determined before and after treatment, after sonicating and homogenizing the biopsy material. The viral load was determined in the same muscle homogenates, as described in Example 1.

[3] = system: HIV; test: Viral load in muscle biopsy homogenates of AIDS subjects; format: in vivo; settings: individual patients and group mean
Protocol: The determinations were carried out prior to the combined treatment, while patients were taking only AZT (T0), after 4 weeks of therapy with the L-carnitine-AZT combination (T1) and one month after discontinuation of treatment with L-carnitine (T2), leaving the patients on AZT alone. TCD4 lymphocytes were measured by flow cytometry by means of a specific monoclonal antibody (number of lymphocytes per mm^3) and the apoptotic lymphocytes by flow cytometry after staining with propydium iodide, quantifying the cells with hypodiploid nuclei (number of lymphocytes per 50,000 cells). The viral load (number of viral particles per ml of serum) was determined by quantifying HVI-1 RNA by means of a polymerase chain reaction (Amplicor HIV detection system by Roche). The Wilcoxon test was used for the statistical processing.
as §1

## Cc1cn([C@H]2C[C@H](N=[N+]=[N-])[C@@H](CO)O2)c(=O)[nH]c1=O [AZT, zidovudine]
[1]; T0: prior to combination treatment, patients on AZT only, 13 patients
  levels of lymphocyte ceramide, T0: 48±8 pmol/10^6 lymphocytes
[1]; T2: one month after discontinuation of L-carnitine, patients on AZT alone
  levels of lymphocyte ceramide, T2: 38±9 pmol/10^6 lymphocytes
[2]
  Pre-treatment ceramide (pmoL/mg protein): 92 pmoL/mg protein
[3]; muscle homogenate after 6 months, AZT 600 mg daily by mouth, with or without L-carnitine 3 g daily
  Post-treatment HIV (viral particles/mg protein): 4,950 viral particles/mg protein
[3]; muscle homogenate before treatment (baseline)
  Pre-treatment HIV (viral particles/mg protein): 4,850 viral particles/mg protein
